Test results taken from the NIST ThermoML archive (doi:10.1021/acs.jced.8b00662).
Numbers after ± are expanded uncertainties.

Assay: xn = mol fraction of the nth substance listed
Settings: 100 kPa, Liquid; for mass density: Vibrating tube method; for viscosity: Falling or rolling sphere viscometry

CC(C)C1CCCCC1 [(1-methylethyl)cyclohexane] + OCC1CC1
Settings	mass density [kg/m3]	viscosity [mPa·s]
318.15 K, x1 = 0.0996	871.02 ± 1.1	–
318.15 K, x1 = 0.1991	853.46 ± 1	–
318.15 K, x1 = 0.2995	838.79 ± 1	–
318.15 K, x1 = 0.3996	826.54 ± 1	–
318.15 K, x1 = 0.4993	816.09 ± 0.99	–
318.15 K, x1 = 0.5997	807.02 ± 0.98	–
318.15 K, x1 = 0.7011	799.17 ± 0.97	–
318.15 K, x1 = 0.7967	792.54 ± 0.96	–
318.15 K, x1 = 0.9026	786.41 ± 0.95	–
318.15 K, x1 = 1	782.59 ± 0.95	–
323.15 K, x1 = 0.0996	866.78 ± 1.1	–
323.15 K, x1 = 0.1003	–	1.525 ± 0.033
323.15 K, x1 = 0.1991	849.2 ± 1	1.312 ± 0.028
323.15 K, x1 = 0.2995	834.53 ± 1	1.151 ± 0.025
323.15 K, x1 = 0.3996	822.28 ± 1	1.027 ± 0.022
323.15 K, x1 = 0.4993	811.84 ± 0.98	0.932 ± 0.02
323.15 K, x1 = 0.5997	802.8 ± 0.97	–
323.15 K, x1 = 0.619	–	0.849 ± 0.018
323.15 K, x1 = 0.7011	794.99 ± 0.96	0.802 ± 0.017
323.15 K, x1 = 0.7967	788.4 ± 0.96	0.764 ± 0.016
323.15 K, x1 = 0.9026	782.33 ± 0.95	0.735 ± 0.016
323.15 K, x1 = 1	778.66 ± 0.95	0.738 ± 0.016
328.15 K, x1 = 0.0996	862.47 ± 1	–
328.15 K, x1 = 0.1003	–	1.372 ± 0.029
328.15 K, x1 = 0.1991	844.88 ± 1	1.189 ± 0.025
328.15 K, x1 = 0.2995	830.2 ± 1	1.05 ± 0.022
328.15 K, x1 = 0.3996	817.96 ± 0.99	0.943 ± 0.02
328.15 K, x1 = 0.4993	807.55 ± 0.98	0.861 ± 0.018
328.15 K, x1 = 0.5997	798.54 ± 0.97	–
328.15 K, x1 = 0.619	–	0.791 ± 0.017
328.15 K, x1 = 0.7011	790.77 ± 0.96	0.75 ± 0.016
328.15 K, x1 = 0.7967	784.24 ± 0.95	0.717 ± 0.015
328.15 K, x1 = 0.9026	778.25 ± 0.95	0.692 ± 0.015
328.15 K, x1 = 1	774.72 ± 0.94	0.698 ± 0.015
333.15 K, x1 = 0.0996	858.1 ± 1	–
333.15 K, x1 = 0.1003	–	1.239 ± 0.026
333.15 K, x1 = 0.1991	840.5 ± 1	1.082 ± 0.023
333.15 K, x1 = 0.2995	825.83 ± 1	0.961 ± 0.021
333.15 K, x1 = 0.3996	813.6 ± 0.99	0.869 ± 0.019
333.15 K, x1 = 0.4993	803.22 ± 0.97	0.799 ± 0.017
333.15 K, x1 = 0.5997	794.24 ± 0.96	–
333.15 K, x1 = 0.619	–	0.738 ± 0.016
333.15 K, x1 = 0.7011	786.52 ± 0.95	0.702 ± 0.015
333.15 K, x1 = 0.7967	780.04 ± 0.95	0.674 ± 0.014
333.15 K, x1 = 0.9026	774.14 ± 0.94	0.654 ± 0.014
333.15 K, x1 = 1	770.77 ± 0.94	0.661 ± 0.014
338.15 K, x1 = 0.0996	853.67 ± 1	–
338.15 K, x1 = 0.1003	–	1.124 ± 0.024
338.15 K, x1 = 0.1991	836.06 ± 1	0.988 ± 0.021
338.15 K, x1 = 0.2995	821.41 ± 0.99	0.883 ± 0.019
338.15 K, x1 = 0.3996	809.2 ± 0.98	0.804 ± 0.017
338.15 K, x1 = 0.4993	798.85 ± 0.97	0.743 ± 0.016
338.15 K, x1 = 0.5997	789.91 ± 0.96	–
338.15 K, x1 = 0.619	–	0.69 ± 0.015
338.15 K, x1 = 0.7011	782.24 ± 0.95	0.66 ± 0.014
338.15 K, x1 = 0.7967	775.82 ± 0.94	0.636 ± 0.014
338.15 K, x1 = 0.9026	770.01 ± 0.94	0.619 ± 0.013
338.15 K, x1 = 1	766.81 ± 0.93	0.628 ± 0.013
343.15 K, x1 = 0.0996	849.17 ± 1	–
343.15 K, x1 = 0.1003	–	1.023 ± 0.022
343.15 K, x1 = 0.1991	831.57 ± 1	0.905 ± 0.019
343.15 K, x1 = 0.2995	816.93 ± 0.99	0.815 ± 0.017
343.15 K, x1 = 0.3996	804.75 ± 0.97	0.746 ± 0.016
343.15 K, x1 = 0.4993	794.44 ± 0.96	0.693 ± 0.015
343.15 K, x1 = 0.5997	785.54 ± 0.95	–
343.15 K, x1 = 0.619	–	0.648 ± 0.014
343.15 K, x1 = 0.7011	777.93 ± 0.94	0.622 ± 0.013
343.15 K, x1 = 0.7967	771.58 ± 0.94	0.601 ± 0.013
343.15 K, x1 = 0.9026	765.88 ± 0.93	0.587 ± 0.013
343.15 K, x1 = 1	762.84 ± 0.93	0.598 ± 0.013
